Counter-ions that a name gives are not always drawn.
Assays:
Bone tissues = test: Doxorubicin-induced toxicity: bone function assays; format: cell-based, human; conditions: 30 µM Dox, 72 hours
Experimental: Bone function assays: To assess the bone’s ability to remodel its matrix, supernatant samples were analyzed for […], (TRAP, Kamiya Biomedical Company, KT-008) and bone sialoprotein (Human Bone Sialoprotein ELISA Kit, Mybiosource, cat. no. MBS261861) after 28 days of culture. These assays were performed according to the manufacturer’s instructions.

Liver tissues = test: Doxorubicin-induced toxicity: liver function assays; format: cell-based, human; conditions: 30 µM Dox, 72 hours
Experimental: Liver function assays: To assess liver function, […] and urea secretion using a Human ELISA kit (Bethyl, E88-129) and a Urea Nitrogen Test Kit (Fisher Scientific, SB-0580-250), respectively. Comparing these samples to the provided standard, concentrations of albumin and urea were calculated and compared to the secretion for each tissue at Day 0. Assays were performed according to the manufacturer’s instructions.

[1] = test system: engineered cardiac tissues; test: Doxorubicin-induced toxicity: heart function assays; format: cell-based, human; conditions: 30 µM Dox, 72 hours
Experimental: Heart function assays: Cardiac excitability, force, and beat rate were obtained using our previously established protocols. Cardiac troponin secretion was determined using the Human Cardiac Troponin I ELISA Kit (Abcam, ab200016) according to the manufacturer’s instructions.

skin tissues = test: Doxorubicin-induced toxicity: skin functional assays; format: cell-based, human; conditions: 30 µM Dox, 72 hours; both Isolated and InterOrgan cultures
Experimental: Skin functional assays: For drug-induced toxicity studies, electrical current was run through the tissues by placing electrodes on either side of the skin tissue and the change in resistance was subsequently measured and read as a function of the barrier. All tissues were analyzed using the same electrode holder setup to standardize the positions of electrodes with respect to the tissue. To analyze the transport of molecules through the skin barrier, Fluorescein (FITC, ThermoFisher, D3306) powder was added to the epidermis of skin tissues. After 3 hrs, 100 µl of supernatant from the dermal region below the skin tissue was sampled and assayed on a plate reader (BioTex Synergy HTX).

[2] = test system: human engineered cardiac tissue; test: Validation of engineered cardiac tissue with drugs of known cardiac effects: beat frequency; format: cell-based
From the text: Levels were normalized first to β actin and subsequently to the tissue engineered bone control (mean ± s.d., n = 3). […] All scale bars: 100 µm.
The cardiac tissue model was generated from iPS-derived cardiomyocytes and fibroblasts encapsulated in fibrin hydrogel, as in our previous studies. The tissue was formed between two elastic pillars causing cell elongation and alignment, and subjected to electrical stimulation to synchronously contract and work against the pillars.
Specifically, linsitinib was dissolved at a 10 mM concentration in DMSO (Corning) and mixed in with the respective cell medium at a […] concentration unless otherwise noted. Vehicle treatments involved just the addition of DMSO at identical volumes as a control. Tissues were randomly assigned to experimental groups. Medium was changed every day.
To measure the cardiac contractility online, we took contractility videos of the tissues that were analyzed using the native MATLAB code we previously developed. Tissue contractility was measured by tracking the change in tissue area as a function of time. Acquired video frames were inverted and an automated intensity threshold was used to identify cell location in the video frame. First, a baseline time point in the video corresponding to a relaxed tissue state was selected. Absolute differences in cell area from the baseline frame were then calculated to create a time course of cell area changes over time. The resulting time courses were analyzed using a native MATLAB (MATHWorks) automated peak finding algorithm to determine locations of maximum cell contractions in the time profiles. Beat period lengths were determined from the length of time between the pairs of local maxima, and the beat frequencies were determined by inverting beat periods. The rate of proarrhythmic events was calculated by the ratio of the number of proarrhythmic events over the total number of beats.

[3] = test system: all tissues in the InterOrgan platform; test: Doxorubicin-induced toxicity in InterOrgan platform: viability and metabolism of all tissues; format: cell-based, human; conditions: 30 µM Dox, 72 hours after exposure
Experimental: After the acute dose, each engineered tissue was assessed for cell viability, glucose consumption, and mitochondrial activity 72 hours after exposure (FIGS. 13D-F). Functional features for each engineered tissue 72 hours after acute exposure (n=3-5) are shown in FIGS. 13G-J. Over a thousand miRNAs from control and Dox-exposed cardiac tissues were differentially expressed under Isolated and InterOrgan conditions (FIG. 13K).
Treatment with 30 µM Dox, corresponding to the clinically administered cumulative dosage shown to induce cardiotoxicty, was delivered to tissues in the InterOrgan platform through the vascular channel and compared against the Isolated condition (FIG. 13A). […] We also detected decreased cardiac contractility and increased troponin release, both clinical measures of cardiac cell damage (FIG. 13G).
Metabolic Assays: Glucose, lactate, glutamate and glutamine were measured in parallel using the bioluminescent Glucose-Glo™ (Promega, cat. no. J6021), Lactate-Glo™ (Promega, cat. No. J5021), Glutamine/Glutamate-Glo™ (Promega, cat. no. J8021) and Glutamate-Glo™ (Promega, cat. no. J7021) assays according to the manufacturer’s protocols.

endothelial barrier = test: Endothelial barrier permeability response to thrombin; format: cell-based, human; conditions: endothelialized mesh inserts under flow shear
From the text: Vascularization The generation of a patient-specific vascular barrier is critical for functionally connecting tissue compartments while maintaining each tissues, as well as vascular perfusion, under optimal culture conditions resulting in phenotypic stability and maturation, analogous to the separation of interstitial and intravascular compartments in vivo. Transwell mesh inserts in each tissue chamber were coated with fibronectin and seeded with ECs and supporting MSCs with 2:1 ratio (FIG. 36). A stable endothelial barrier was then established by exposure to flow shear (ramped up from 1 to 5 dyn/cm^2 over 5 days of culture). To physiologically integrate engineered tumors and host tissues by vascular flow, the endothelialized membrane needs to separate the interstitial and intravascular spaces, enabling vasculature-mediated tissues crosstalk. […] Such response to an inflammatory agent is critical for metastatic extravasation of cancer cells. The endothelial barrier allowed optimization of culture conditions for each tissue - akin to compartmentalization in the body that avoids the use of “common” media. This approach promoted long term culture (4-12 weeks) of matured tissues, with on-line readouts (cell tracking, viability, function) in longitudinal and dynamic studies. […]

cardiac muscle = test: Drug distribution with functional matching in InterOrgan platform: cardiac beat frequency; format: cell-based, human; conditions: 10 µM introduced into the reservoir at t = 0; assessed at 24 and 72 hours
[4] = FITC circulation in the platform (absorption and diffusive transport); format: physicochemical
Experimental: We also circulated fluorescent FITC, which has similar chemical properties as linsitinib including hydrophobicity and molecular weight, and measured its distribution across the 2 tissue chambers in the platform (FIG. 26F). The simulated and empirical results agreed: FITC also reached uniform concentration in all areas of the platform in within 12 hours, after reaching equilibrium across both models at approximately 6 hours. This is significant, since linsitinib is known to have a short half-life of approximately 5 hours. The delayed drug distribution by diffusion through tissues observed here has been documented as an issue for treating solid tumors in patients, with chemotherapeutic concentrations decreasing exponentially with distance from tumor blood vessels and often being limited to the peripheries of tumors even 12 hours after injection.
Fluorescein isothiocyanate (FITC, 10 mM in DMSO; Sigma Aldrich) was circulated for the integrated platform to determine potential hydrophobic small molecule absorption, given its physical and chemical properties. FITC was added at a concentration of 10 µM to 8 mL of 1:1 bone tumor/cardiac mixed media and introduced into the platform. The control was the FITC-containing media in a standard 24-multiwell plate (Corning). Aliquots from the reservoir, bone tumor, and cardiac tissue chambers were taken at 12, 24, 48 and 72 hours and measured for fluorescent signal using a spectrophotometer (Biotek).
Measurements of FITC concentrations were used to estimate the spread of linsitinib within the platform via diffusive circulating transport. Four independent platforms were filled with 8 mL of 1:1 mixed media each, after which 10 µM of FITC was injected into the reservoir. The platforms were connected to the peristaltic pumps run at 100 rpm to generate physiologically relevant fluid flow rate and shear stress. Aliquots were taken from the reservoir, bone and cardiac chambers at 0, 2, 4, 6, and 12 hours post injection, and assayed for fluorescence signal on a spectrophotometer (Biotek).

[5] = 10 µM injected into the reservoir
[6] = isoproterenol dose-response study

## COc1cccc2c1C(=O)c1c(O)c3c(c(O)c1C2=O)C[C@@](O)(C(=O)CO)C[C@@H]3O[C@H]1C[C@H](N)[C@H](O)[C@H](C)O1 [doxorubicin]
Bone tissues
  TRAP responses: stable
  cellularity: decreased
Liver tissues
  albumin: decreased
  urea production: unaffected
[1]
  cardiac contractility: decreased
  troponin release: increased
Skin tissues
  diffusional permeability: increased
  electrical resistance: decreased
[2]; doxorubicin 1 µM over 72 hours
  beat frequency: initially increased, and then decreased following prolonged exposure to the drug
[3]
  Cell viability: significantly decreased
  glucose consumption: significantly decreased
  mitochondrial activity: significantly decreased

## CCCCc1oc2ccccc2c1C(=O)c1cc(I)c(OCCN(CC)CC)c(I)c1 [Amiodarone, amiodarone hydrochloride]
[2]; amiodarone 2.418 µM over 48 hours
  beat frequency: expected decreases in the beat frequency

## thrombin
Endothelial barrier
  barrier permeability: physiologic increase in barrier permeability

## Cn1c(=O)c2c(ncn2C)n(C)c1=O [caffeine]
[2]; caffeine 50 mM
  beat frequency: physiologic increases in beat frequency

## CNC[C@H](O)c1ccc(O)c(O)c1 [epinephrine]
Cardiac muscle
  beat rate of cardiac muscle: increased

## Fluorescein isothiocyanate [FITC]
[4]; 10 µM circulated for 72 hours, polysulfone platform compared to multi-well plates
  absorption by the platform: without any measurable absorption by the platform
[4]; [5]
  time to equilibrium across both models: approximately 6 hours
  time to uniform concentration in all areas of the platform: ≤ 12 h

## CC(C)NCC(O)c1ccc(O)c(O)c1 (stereo not shown) [isoproterenol, isoproterenol hydrochloride]
[2]; [6]
  EC50 (beat frequency): expected values of EC50
  beat frequency: increased

## CN(CCOc1ccc(NS(C)(=O)=O)cc1)CCc1ccc(NS(C)(=O)=O)cc1 [dofetilide]
Cardiac muscle
  beat rate of cardiac muscle: decreased

Reference: patent US20230287316A1, “INTER-ORGAN PLATFORM WITH TISSUE-SPECIFIC NICHES FOR A MICROPHYSIOLOGICAL SYSTEM ON A CHIP” (THE TRUSTEES OF COLUMBIA UNIVERSITY IN THE CITY OF NEW YORK, priority 2020, published 2023)
